Laboratory results reported in patent publication US7994326B2 (Northwestern University, priority 2003, dated 2011).
Read-outs that look alike come from different tables or passages of the source.

Legend:
Format in all cases: biochemical
rat nNOS = target: T1, rat nNOS (Rattus norvegicus, UniProt P29476); test: NOS enzyme inhibitory assay (hemoglobin capture), nNOS; conditions: Table 1a; for Selectivity n/e: Ki(eNOS)/Ki(nNOS); for Selectivity n/i: Ki(iNOS)/Ki(nNOS); for Ki: apparent Ki calculated from IC50, Km […], read-out: calc. Ki nNOS; for IC50: rat nNOS, 10 μM L-arginine
T1 construct: made in house; host or cells: E. coli (plasmid pCWnNOS)
Method: (§1) All of the NOS isoforms used were recombinant enzymes overexpressed in E. coli from different sources. Nitric oxide formation from NOS was monitored by the hemoglobin capture assay as described in the literature.
After approximately 48 h of post-induction incubation in the dark at 25° C. the cells were pelleted at 5300×g, transferred to 50 mL conical tubes, and stored at −80° C.
nNOS purification: Cell pellets from 2.0 L of culture were resuspended in sonication Buffer A (50 mM Tris Base Buffer, pH 8.0, 10% glycerol), 2 mg/ml lysozyme. 0.5 mM L-arginine. 1 mM EDTA, 0.1 mM PMSF, 1 µg/ml antipain, and 1 μM each of leupeptin, […], and […]) and lysed by sonication. Centrifugation for 1 h at 100000×g yielded supernatant which contained nNOS active enzyme. The supernatant was brought to 2 mM CaCl2 and the protein was loaded onto a 15 ml calmodulin-Sepharose column equilibrated with Buffer A containing 2 mM CaCl2. The column was washed with 100 ml Buffer B (50 mM Hepes, 5 mM DTT, and […]) containing 2 mM CaCl2, 0.5 mM L-arginine, and 10 μM BH4, and eluted with 30 ml Buffer B supplemented with 0.3 M NaCl, 5 mM EGTA, 0.5 mM L-arginine, and 10 μM BH4. The protein was then loaded onto a 5 ml 2′,5′-ADP-Sepharose column equilibrated with Buffer B supplemented with 0.3 M NaCl, 0.5 mM L-arginine, and 10 μM BH4. The column was washed with 25 ml Buffer B containing 0.5 mM L-arginine and 10 μM BH4, and then 25 ml of Buffer B only supplemented with 10 μM BH4 (without L-arginine). Neuronal NOS was eluted with 20 ml Buffer B supplemented with 10 mM 2′(3′)-AMP, 10 μM BH4 and 0.3 M NaCl. The 20 ml eluent was then concentrated to 5 ml by ultrafiltration. The above concentration operation was repeated twice more with 10 ml Buffer B supplemented with 10 µM BH4 to give the purified neuronal NOS.
Nitric oxide formation from NOS was monitored by the hemoglobin capture assay as described previously.
(§2) The selectivity of an inhibitor is defined as the ratio of the respective Ki values.

murine iNOS = target: T2, murine iNOS (Mus musculus, UniProt P29477); test: NOS enzyme inhibitory assay (hemoglobin capture), iNOS; conditions: for IC50: murine iNOS, 10 μM L-arginine
T2 construct: made in house; host or cells: E. coli (plasmid pCWiNOS)
Source text: as §1
Enzyme inhibitory assay. All of the NOS isoforms used are recombinant enzymes overexpressed in E. coli from different sources.
iNOS expression: An overnight culture of pCWiNOS was used to inoculate (1:100) larger cultures of Terrific Broth media (12 g/L tryptone, 24 g/L yeast extract, 4 mL/L glycerol, 17 mM KH2PO4, and 72 mM K2HPO4) containing 50 μg/mL ampicillin and 34 μg/mL chloramphenicol at 37° C. At an OD600 of ˜0.5, the culture was cooled to 25° C. and induced by the addition of 1 mM IPTG (final concentration). After approximately 24 h of growth at 25° C., the cells were pelleted at 5300×g, transferred to 50 mL conical tubes, and stored at −80° C.
iNOS purification: Cell pellets from 1.0 L of culture were resuspended in sonication buffer (50 mM Hepes, pH 7.4, 10% glycerol, 10 μg/mL benzamidine, 5 μg/mL leupeptin, 0.2 mM of PMSF, and 1 μg/mL each of pepstatin, chymostatin, and antipain) and lysed by sonication. Centrifugation for 20 min at 13000×g yielded supernatant which contained iNOS active enzyme. iNOS supernatant was loaded onto 1 g of a 2′,5′-ADP-Sepharose 4B resin column. The column was then washed with 20 ml iNOS purification buffer (10 mM K2HPO4, 10% glycerol, 0.5 mM L-arginine, pH 7.4) and 10 μM BH4. Inducible NOS was eluted with 30 ml iNOS purification buffer supplemented with 10 mM 2′(3′)-AMP, 10 μM BH4, and 0.3 M NaCl. The eluent was concentrated to 5 ml by ultrafiltration. The above concentration operation was repeated three times more with 10 ml Hepes buffer supplemented with 10 μM BH4, to give purified inducible NOS.
(§3) Nitric oxide formation from NOS was monitored by the hemoglobin capture assay as described previously. (Hevel, J. M.; Marletta, M. A. Nitric Oxide Synthase Assays. Methods Enzymol. 1994, […], 250-258).
as §2

bovine eNOS = target: T3, bovine eNOS (Bos taurus, UniProt P29473); test: NOS enzyme inhibitory assay (hemoglobin capture), eNOS; conditions: for IC50: bovine eNOS, 10 μM L-arginine, * = no inhibition observed up to the concentration listed
T3 construct: made in house; host or cells: E. coli (plasmid Bov-eNOSpCW)
Method: as §1
Expression of bovine eNOS: An overnight culture of Bov-eNOSpCW was used to inoculate 0.5 liter (in a 2.8-liter Fernbach flask) of modified TB (20 g of yeast extract, 10 g of bacto-tryptone, 2.65 g of KH2PO4, 4.33 g of Na2HPO4 and 4 ml of glycerol per liter) containing ampicillin ([…]) and chloramphenicol ([…]). The cultures were grown to an OD600 of z0.8 at 22° C. (200 rpm) and induced with 0.5 mM IPTG. One hour before IPTG induction, d-aminolevulinic acid (0.5 mM final) was added and, at the time of IPTG induction, riboflavin ([…]) and ATP (1 mM final) were also added. After induction, the flasks were kept in the dark at 22° C. (200 rpm). The cells were harvested 48 h after induction, and the cell pellet was frozen at −80° C. until purification was carried out.
Purification of bovine eNOS. The purification was typically carried out with eNOS from 2 liters of E. coli culture. The eNOS protein was purified using a modification of the published protocol for nNOS (14). The cells were resuspended in buffer C [50 mM Tris-Cl, pH 7.8, 1 mM EDTA, 1 mM DTT, 10% glycerol (v/v), 150 mM NaCl, 0.1 mM phenylmethylsulfonyl fluoride, […]], lysed by pulsed sonication and then centrifuged to sediment the cell debris. The supernatant was applied to a 2′,5′-ADP Sepharose 4B column equilibrated in buffer D [50 mM Tris-Cl, pH 7.8, 0.1 mM EDTA, 0.1 mM dithiothreitol, 150 mM NaCl, 10% glycerol (v/v)]. The column was washed with 20 column volumes of buffer B and again with 20 column volumes of buffer B containing 600 mM NaCl. Finally, protein was eluted with buffer B containing 600 mM NaCl and 5 mM 2′-AMP. The fractions were screened for absorption in the Soret region (A400) and hemoprotein-containing fractions were pooled and concentrated (Centriprep 50, Amicon). Repeated dilution/concentration [50 mM Tris-Cl, pH 7.8, 0.1 mM EDTA, 0.1 mM dithiothreitol, 10% glycerol (vol/vol)] was used to reach a final concentration of 150 mM NaCl and commensurately reduce the 2′-AMP content. […] The purified eNOS is stored in the presence of 1 mM L-arginine.
eNOS washing: eNOS contains a significant amount of L-arginine, which will interfere with the enzyme assay. The L-arginine can be removed by several dilution and concentration steps using an Amico concentrator. The dilution buffer is 10 ml Tris-HCl 50 mM containing 0.1 mM EDTA, 400 mM NaCl, 10% glycerol and 1 mM beta-mercaptoethanol. The above dilution and concentration operation was repeated three times to give purified eNOS.
as §3, §2

[1] = Table 1a, apparent Ki calculated from IC50, Km […], read-out: calc. Ki iNOS
[2] = Table 1a, apparent Ki calculated from IC50, Km 1.7 μM, read-out: calc. Ki eNOS

Row | SMILES | Selectivity n/e (rat nNOS) | Selectivity n/i (rat nNOS) | Ki (rat nNOS) [µM] | IC50 (rat nNOS) [µM] | Ki (murine iNOS; [1]) [µM] | IC50 (murine iNOS; Table 1a) [µM] | Ki (bovine eNOS; [2]) [µM] | IC50 (bovine eNOS; Table 1a) [µM] | Ki (bovine eNOS; Table 1b, read-out: Ki eNOS) [µM] | Ki (murine iNOS; Table 1b, read-out: Ki iNOS) [µM]
1 | Cl.Cl.Nc1cccc(CC2CNCC2O)n1 (racemic) [Compound P-11] | 49.11 | 3.64 | 6.94 | 60.3 | 25.2 | 56 | 341 | 2350 |  | 
2 | Cl.Cl.Cl.Nc1cccc(CC2CNCC2NCCCc2ccccc2)n1 (racemic) [Compound P-12] | 6.42 | 10.83 | 13.3 | 115 | 144 | 317 | 85.2 | 586 |  | 
3 | CN(C)CCNC1CNCC1Cc1cccc(N)n1 (racemic) [Compound P-15] | 15.41 | 19.65 | 15.7 | 136 | 308 | 679 | 242 | 1660 |  | 
4 | Nc1cccc(CC2CNCC2NCC(N)Cc2ccccc2)n1 (racemic) [Compound P-16] | >104.83 | 21.54 | 13.9 | 120 | 299 | 658 | > 1450 | > 10000 |  | 
5 | Nc1cccc(CC2CNCC2NCC(N)Cc2ccccc2)n1 (racemic) [Compound P-17] | >70.64 | 20.25 | 20.6 | 179 | 417 | 919 | > 1450 | > 10000 |  | 
6 | Nc1cccc(C[C@H]2CNC[C@@H]2NCCNCc2ccccc2)n1 (racemic) [Compound P-18] | >703.88 | 11.49 | 14.5 | 126 | 166 | 366 |  | > 70000 |  | 
7 | Nc1cccc(CC2CNCC2NC2CCNC2)n1 (racemic) [Compound P-19] | 22.00 | 12.11 | 20.9 | 182 | 253 | 559 | 460 | 3170 |  | 
8 | Nc1cccc(CC2CNCC2NC2CCNC2)n1 (racemic) [Compound P-20] | 48.67 | 18.21 | 12.8 | 112 | 234 | 516 | 625 | 4300 |  | 
9 | Nc1cccc(CC2CNCC2NC2CCN(Cc3ccccc3)C2)n1 (racemic) [Compound P-21] | 6.99 | 11.70 | 24.4 | 212 | 286 | 630 | 171 | 1170 |  | 
10 | Nc1cccc(CC2CNCC2NC2CCN(Cc3ccccc3)C2)n1 (racemic) [Compound P-22] | 6.07 | 11.66 | 17.9 | 156 | 209 | 461 | 109 | 748 |  | 
11 | Cl.Cl.Cl.Nc1cccc(C[C@H]2CNC[C@H]2NCCCc2ccccc2)n1 (racemic) [Compound P-27] | 27.9 | 52.43 | 3.17 | 27.5 | 166 | 366 | 88.5 | 609 |  | 
12 | CN(C)CCNC1CNCC1Cc1cccc(N)n1 (racemic) [Compound P-30] | 42.02 | 58.45 | 3.33 | 29 | 195 | 429 | 140 | 963 |  | 
13 | Nc1cccc(CC2CNCC2NCC(N)Cc2ccccc2)n1 (racemic) [Compound P-31] | >600 | 98.27 | 2.42 | 21 | 238 | 524 | > 1450 | > 10000 |  | 
14 | Cc1cc(N)nc(CC2CNCC2N(C)CCNCc2ccc(Cl)cc2)c1 (racemic) [Compound P-64] |  |  |  |  |  |  |  |  | 125 | 
15 | Cc1cc(N)nc(C[C@H]2CNC[C@@H]2N(C)CCNCc2ccc(Cl)cc2)c1 (racemic) [Compound P-69] |  |  |  |  |  |  |  |  | 58.1 | 
16 | Cc1cc(N)nc(C[C@H]2CNC[C@H]2OCC(=O)NCCc2cccc(F)c2)c1 (racemic) [Compound P-79, (±)-2-{cis-4-[(6-amino-4-methylpyridin-2-yl)methyl]pyrrolidin-3-yloxy}-N-(3-fluorophenethyl)acetamide] |  |  |  |  |  |  |  |  | 125 | 13
